Values joined by “and” are separate entries in the source; they are usually repeats but may differ in a detail not shown here. Identical values can stand only once. Inconclusive results and toxic doses are left out.
Tested on: L1210 leukemia ip in BDF1 mice, survival T/C
Assay: NCI In Vivo Anticancer Drug Screen. Data for tumor model L1210 Leukemia (intraperitoneal) in B6D2F1 (BDF1) mice
Conditions: endpoint: mean survival time, higher = longer survival
Procedure, shortened: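 In this screen, tumor-bearing mice given compound are compared to those given vehicle, and their survival values are reported as a treated-to-control quotient.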

O=c1[nH]c(=O)n(C2CC(O)C(CO)O2)cc1C(F)(F)F (stereo unspecified)
T/C (dose: 0.16 mg/kg/injection, schedule: Q#B X045 (ip), vehicle: saline): 109 % of control | T/C (dose: 0.33 mg/kg/injection, schedule: Q#B X045 (ip), vehicle: saline): 119 % of control | T/C (dose: 0.56 mg/kg/injection, schedule: Q01DX Z (ip), vehicle: saline): 112 % of control | T/C (dose: 0.66 mg/kg/injection, schedule: Q#B X045 (ip), vehicle: saline): 122 % of control | T/C (dose: 1.12 mg/kg/injection, schedule: Q01DX Z (ip), vehicle: saline): 106 % of control | T/C (dose: 1.5 mg/kg/injection, schedule: Q01DX Z (sc), vehicle: saline): 112 % of control | T/C (dose: 2.25 mg/kg/injection, schedule: Q01DX Z (ip), vehicle: saline): 118 % of control | T/C (dose: 3.0 mg/kg/injection, schedule: Q01DX Z (sc), vehicle: saline): 114 % of control | T/C (dose: 3.12 mg/kg/injection, schedule: Q01DX Z (im), vehicle: saline): 104 % of control | T/C (dose: 4.5 mg/kg/injection, schedule: Q01DX Z (ip), vehicle: saline): 114 % of control | T/C (dose: 6.0 mg/kg/injection, schedule: Q01DX Z (sc), vehicle: saline): 118 % of control | T/C (dose: 6.25 mg/kg/injection, schedule: Q01DX006 (iv), vehicle: saline): 121 % of control | T/C (dose: 6.25 mg/kg/injection, schedule: Q01DX015 (ip), vehicle: saline): 120 % of control | T/C (dose: 9.0 mg/kg/injection, schedule: Q01DX Z (ip), vehicle: saline): 153 % of control | T/C (dose: 12.0 mg/kg/injection, schedule: Q01DX Z (sc), vehicle: saline): 118 % of control | T/C (dose: 12.5 mg/kg/injection, schedule: Q01DX006 (iv), vehicle: saline): 115 % of control | T/C (dose: 12.5 mg/kg/injection, schedule: Q01DX Z (oral), vehicle: saline): 120 % of control | T/C (dose: 18.0 mg/kg/injection, schedule: Q01DX Z (ip), vehicle: saline): 150 % of control | T/C (dose: 18.75 mg/kg/injection, schedule: Q#A X034 (ip), vehicle: water): 122 % of control | T/C (dose: 20.0 mg/kg/injection, schedule: Q01DX009 (oral), vehicle: saline): 116 % of control | T/C (dose: 20.0 mg/kg/injection, schedule: Q01DX Z (ip), vehicle: saline): 119 % of control | T/C (dose: 25.0 mg/kg/injection, schedule: Q01DX015 (ip), vehicle: saline): 152 % of control | T/C (dose: 25.0 mg/kg/injection, schedule: Q01DX Z (ip), vehicle: saline): 160 % of control | T/C (dose: 25.0 mg/kg/injection, schedule: Q01DX Z (oral), vehicle: saline): 120 % of control | T/C (dose: 38.0 mg/kg/injection, schedule: Q01DX Z (ip), vehicle: water): 117 % of control | T/C (dose: 40.0 mg/kg/injection, schedule: Q01DX009 (oral), vehicle: saline): 121 % of control | T/C (dose: 45.0 mg/kg/injection, schedule: Q01DX015 (oral), vehicle: saline): 122 % of control | T/C (dose: 50.0 mg/kg/injection, schedule: Q01DX Z (ip), vehicle: saline): 154 % of control | T/C (dose: 50.0 mg/kg/injection, schedule: Q01DX Z (sc), vehicle: saline): 156 % of control | T/C (dose: 64.0 mg/kg/injection, schedule: Q01DX009 (ip), vehicle: water): 156 % of control | T/C (dose: 65.0 mg/kg/injection, schedule: Q01DX015 (oral), vehicle: saline): 104 % of control | T/C (dose: 65.0 mg/kg/injection, schedule: Q01DX Z (ip), vehicle: water): 157 % of control | T/C (dose: 100.0 mg/kg/injection, schedule: Q01DX001 (ip), vehicle: saline): 106 % of control and 107 % of control | T/C (dose: 100.0 mg/kg/injection, schedule: Q01DX015 (oral), vehicle: saline): 120 % of control | T/C (dose: 100.0 mg/kg/injection, schedule: Q01DX Z (im), vehicle: saline): 154 % of control | T/C (dose: 100.0 mg/kg/injection, schedule: Q## X001 (ip), vehicle: saline): 103 % of control | T/C (dose: 107.0 mg/kg/injection, schedule: Q01DX Z (ip), vehicle: water): 154 % of control | T/C (dose: 128.0 mg/kg/injection, schedule: Q01DX001 (oral), vehicle: saline): 112 % of control | T/C (dose: 128.0 mg/kg/injection, schedule: Q01DX009 (ip), vehicle: water): 151 % of control | T/C (dose: 128.0 mg/kg/injection, schedule: Q## X003 (oral), vehicle: saline): 119 % of control | T/C (dose: 128.0 mg/kg/injection, schedule: Q## X024 (oral), vehicle: saline): 115 % of control | T/C (dose: 150.0 mg/kg/injection, schedule: Q01DX Z (ip), vehicle: saline): 159 % of control | T/C (dose: 150.0 mg/kg/injection, schedule: Q04DX005 (ip), vehicle: water): 118 % of control | T/C (dose: 150.0 mg/kg/injection, schedule: Q#A X034 (ip), vehicle: water): 124 % of control | T/C (dose: 180.0 mg/kg/injection, schedule: Q01DX Z (ip), vehicle: water): 122 % of control | T/C (dose: 200.0 mg/kg/injection, schedule: Q01DX001 (ip), vehicle: saline): 109 % of control | T/C (dose: 200.0 mg/kg/injection, schedule: Q01DX Z (sc), vehicle: saline): 160 % of control | T/C (dose: 200.0 mg/kg/injection, schedule: Q## X001 (ip), vehicle: saline): 111 % of control | T/C (dose: 250.0 mg/kg/injection, schedule: Q01DX001 (ip), vehicle: saline): 112 % of control | T/C (dose: 250.0 mg/kg/injection, schedule: Q01DX Z (ip), vehicle: saline): 157 % of control | T/C (dose: 251.0 mg/kg/injection, schedule: Q01DX Z (ip), vehicle: saline): 108 % of control | T/C (dose: 256.0 mg/kg/injection, schedule: Q01DX001 (oral), vehicle: saline): 112 % of control | T/C (dose: 256.0 mg/kg/injection, schedule: Q01DX009 (ip), vehicle: saline): 150 % of control | T/C (dose: 256.0 mg/kg/injection, schedule: Q01DX009 (oral), vehicle: saline): 157 % of control | T/C (dose: 256.0 mg/kg/injection, schedule: Q03HX016 (ip), vehicle: water): 153 % of control | T/C (dose: 256.0 mg/kg/injection, schedule: Q04DX003 (ip), vehicle: water): 116 % of control | T/C (dose: 300.0 mg/kg/injection, schedule: Q01DX001 (ip), vehicle: water): 106 % of control | T/C (dose: 300.0 mg/kg/injection, schedule: Q01DX017 (ip), vehicle: water): 119 % of control | T/C (dose: 300.0 mg/kg/injection, schedule: Q01DX Z (ip), vehicle: water): 102 % of control | T/C (dose: 300.0 mg/kg/injection, schedule: Q01DX Z (oral), vehicle: saline): 116 % of control | T/C (dose: 300.0 mg/kg/injection, schedule: Q03DX Z (ip), vehicle: saline): 118 % of control | T/C (dose: 300.0 mg/kg/injection, schedule: Q04DX005 (ip), vehicle: water): 123 % of control | T/C (dose: 320.0 mg/kg/injection, schedule: Q01DX015 (ip), vehicle: saline): 98 % of control | T/C (dose: 350.0 mg/kg/injection, schedule: Q01DX Z (ip), vehicle: saline): 111 % of control | T/C (dose: 351.0 mg/kg/injection, schedule: Q01DX Z (ip), vehicle: saline): 114 % of control | T/C (dose: 400.0 mg/kg/injection, schedule: Q01DX001 (ip), vehicle: saline): 98 % of control and 113 % of control | T/C (dose: 400.0 mg/kg/injection, schedule: Q01DX Z (im), vehicle: saline): 159 % of control | T/C (dose: 400.0 mg/kg/injection, schedule: Q## X001 (ip), vehicle: saline): 116 % of control | T/C (dose: 480.0 mg/kg/injection, schedule: Q01DX015 (ip), vehicle: saline): 98 % of control | T/C (dose: 500.0 mg/kg/injection, schedule: Q01DX001 (ip), vehicle: saline): 112 % of control | T/C (dose: 512.0 mg/kg/injection, schedule: Q01DX001 (oral), vehicle: saline): 112 % of control | T/C (dose: 512.0 mg/kg/injection, schedule: Q01DX009 (ip), vehicle: saline): 117 % of control | T/C (dose: 512.0 mg/kg/injection, schedule: Q04DX003 (ip), vehicle: water): 120 % of control | T/C (dose: 512.0 mg/kg/injection, schedule: Q## X008 (oral), vehicle: saline): 121 % of control | T/C (dose: 600.0 mg/kg/injection, schedule: Q01DX001 (ip), vehicle: water): 107 % of control | T/C (dose: 600.0 mg/kg/injection, schedule: Q01DX Z (oral), vehicle: saline): 106 % of control | T/C (dose: 600.0 mg/kg/injection, schedule: Q02DX009 (ip), vehicle: water): 159 % of control | T/C (dose: 600.0 mg/kg/injection, schedule: Q04DX005 (ip), vehicle: water): 119 % of control | T/C (dose: 800.0 mg/kg/injection, schedule: Q01DX001 (ip), vehicle: saline): 107 % of control and 116 % of control | T/C (dose: 800.0 mg/kg/injection, schedule: Q01DX006 (iv), vehicle: saline): 154 % of control | T/C (dose: 800.0 mg/kg/injection, schedule: Q01DX Z (ip), vehicle: saline): 124 % of control | T/C (dose: 800.0 mg/kg/injection, schedule: Q01DX Z (oral), vehicle: saline): 110 % of control | T/C (dose: 800.0 mg/kg/injection, schedule: Q## X001 (ip), vehicle: saline): 121 % of control | T/C (dose: 1000.0 mg/kg/injection, schedule: Q01DX001 (ip), vehicle: saline): 123 % of control | T/C (dose: 1024.0 mg/kg/injection, schedule: Q01DX001 (oral), vehicle: saline): 121 % of control | T/C (dose: 1024.0 mg/kg/injection, schedule: Q01DX009 (oral), vehicle: saline): 101 % of control | T/C (dose: 1024.0 mg/kg/injection, schedule: Q## X003 (oral), vehicle: saline): 156 % of control | T/C (dose: 1200.0 mg/kg/injection, schedule: Q01DX001 (ip), vehicle: water): 104 % of control | T/C (dose: 1200.0 mg/kg/injection, schedule: Q01DX Z (im), vehicle: saline): 121 % of control | T/C (dose: 1200.0 mg/kg/injection, schedule: Q01DX Z (sc), vehicle: saline): 115 % of control | T/C (dose: 1200.0 mg/kg/injection, schedule: Q04DX005 (ip), vehicle: water): 119 % of control | T/C (dose: 1600.0 mg/kg/injection, schedule: Q01DX Z (im), vehicle: saline): 113 % of control | T/C (dose: 1600.0 mg/kg/injection, schedule: Q01DX Z (oral), vehicle: saline): 97 % of control | T/C (dose: 1600.0 mg/kg/injection, schedule: Q01DX Z (sc), vehicle: saline): 107 % of control | T/C (dose: 2400.0 mg/kg/injection, schedule: Q01DX001 (ip), vehicle: water): 104 % of control | T/C (dose: 4096.0 mg/kg/injection, schedule: Q## X008 (oral), vehicle: saline): 151 % of control

Reference: PubChem BioAssay AID248 (DTP/NCI, 2004)
